Laboratory results taken from the supplement of paper PMC10307832.

Tests used:
Experiment in all cases: relative viability (nuclei count vs DMSO), 5 days (fraction); higher = more cells survive
NCI-H2228 = system: NCI-H2228
Procedure, shortened: (§1)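 Dosing by pin tool came one day after lung cancer cell lines were seeded in 1536-well plates, using either one drug or a fixed anchor-drug dose plus five library-drug doses (not always all listed) in √10 steps. After 5 days, nuclei were counted on 4× images. Relative viability is treated-well nuclei count divided by vehicle-well nuclei count, and values are medians of duplicate plates.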

H3255 = system: H3255
Procedure, shortened: as §1

PC-14 = system: PC-14
Procedure, shortened: as §1

NCI-H520 = system: NCI-H520
Procedure, shortened: as §1

COR-L23 = system: COR-L23
Procedure, shortened: as §1

NCI-H1355 = system: NCI-H1355
Procedure, shortened: as §1

NCI-H661 = system: NCI-H661
Procedure, shortened: as §1

HCC-15 = system: HCC-15
Procedure, shortened: as §1

NCI-H1734 = system: NCI-H1734
Procedure, shortened: as §1

NCI-H2405 = system: NCI-H2405
Procedure, shortened: as §1

CAL-12T = system: CAL-12T
Procedure, shortened: as §1

EKVX = system: EKVX
Procedure, shortened: as §1

SW 1573 = system: SW 1573
Procedure, shortened: as §1

NCI-H1437 = system: NCI-H1437
Procedure, shortened: as §1

RERF-LC-KJ = system: RERF-LC-KJ
Procedure, shortened: as §1

HCC-827 = system: HCC-827
Procedure, shortened: as §1

LK-2 = system: LK-2
Procedure, shortened: as §1

PC-3 [JPC-3] = system: PC-3 [JPC-3]
Procedure, shortened: as §1

NCI-H322M = system: NCI-H322M
Procedure, shortened: as §1

NCI-H1563 = system: NCI-H1563
Procedure, shortened: as §1

ABC-1 = system: ABC-1
Procedure, shortened: as §1

## C=C1C(=O)O[C@@H](CCCCCCCC)[C@@H]1C(=O)O [C-75] + Cc1nc(NC(=O)N2CCC[C@H]2C(N)=O)sc1-c1ccnc(C(C)(C)C(F)(F)F)c1 [Alpelisib] (partner 2 µM)
NCI-H2228; first compound 0.08 µM
  relative viability: 0.751
NCI-H2228; first compound 0.253 µM
  relative viability: 1.01
NCI-H2228; first compound 0.8 µM
  relative viability: 0.73
NCI-H2228; first compound 2.53 µM
  relative viability: 0.604
NCI-H2228; first compound 8 µM
  relative viability: 0.744
H3255; first compound 0.08 µM
  relative viability: 0.615
H3255; first compound 0.253 µM
  relative viability: 0.789
H3255; first compound 0.8 µM
  relative viability: 0.638
H3255; first compound 2.53 µM
  relative viability: 0.828
H3255; first compound 8 µM
  relative viability: 0.78
PC-14; first compound 0.08 µM
  relative viability: 0.897
PC-14; first compound 0.253 µM
  relative viability: 1.02
PC-14; first compound 0.8 µM
  relative viability: 0.904
PC-14; first compound 2.53 µM
  relative viability: 0.901
PC-14; first compound 8 µM
  relative viability: 1.01
NCI-H520; first compound 0.08 µM
  relative viability: 0.836
NCI-H520; first compound 0.253 µM
  relative viability: 1.09
NCI-H520; first compound 0.8 µM
  relative viability: 1.02
NCI-H520; first compound 2.53 µM
  relative viability: 0.996
NCI-H520; first compound 8 µM
  relative viability: 1.01
COR-L23; first compound 0.08 µM
  relative viability: 0.762
COR-L23; first compound 0.253 µM
  relative viability: 1.02
COR-L23; first compound 0.8 µM
  relative viability: 0.753
COR-L23; first compound 2.53 µM
  relative viability: 0.741
COR-L23; first compound 8 µM
  relative viability: 0.723
NCI-H1355; first compound 0.08 µM
  relative viability: 0.815
NCI-H1355; first compound 0.253 µM
  relative viability: 0.825
NCI-H1355; first compound 0.8 µM
  relative viability: 0.825
NCI-H1355; first compound 2.53 µM
  relative viability: 0.835
NCI-H1355; first compound 8 µM
  relative viability: 0.886
NCI-H661; first compound 0.08 µM
  relative viability: 0.545
NCI-H661; first compound 0.253 µM
  relative viability: 0.477
NCI-H661; first compound 0.8 µM
  relative viability: 0.657
NCI-H661; first compound 2.53 µM
  relative viability: 0.409
NCI-H661; first compound 8 µM
  relative viability: 0.718
HCC-15; first compound 0.08 µM
  relative viability: 0.891
HCC-15; first compound 0.253 µM
  relative viability: 0.862
HCC-15; first compound 0.8 µM
  relative viability: 0.873
HCC-15; first compound 2.53 µM
  relative viability: 0.641
HCC-15; first compound 8 µM
  relative viability: 0.871
NCI-H1734; first compound 0.08 µM
  relative viability: 0.691
NCI-H1734; first compound 0.253 µM
  relative viability: 0.609
NCI-H1734; first compound 0.8 µM
  relative viability: 0.69
NCI-H1734; first compound 2.53 µM
  relative viability: 0.447
NCI-H1734; first compound 8 µM
  relative viability: 0.631
NCI-H2405; first compound 0.08 µM
  relative viability: 0.833
NCI-H2405; first compound 0.253 µM
  relative viability: 0.481
NCI-H2405; first compound 0.8 µM
  relative viability: 0.703
NCI-H2405; first compound 2.53 µM
  relative viability: 0.884
NCI-H2405; first compound 8 µM
  relative viability: 0.816
CAL-12T; first compound 0.08 µM
  relative viability: 1.19
CAL-12T; first compound 0.253 µM
  relative viability: 1.47
CAL-12T; first compound 0.8 µM
  relative viability: 1.12
CAL-12T; first compound 8 µM
  relative viability: 1.33
EKVX; first compound 0.08 µM
  relative viability: 0.885
EKVX; first compound 0.253 µM
  relative viability: 0.863
EKVX; first compound 0.8 µM
  relative viability: 0.913
EKVX; first compound 2.53 µM
  relative viability: 0.583
EKVX; first compound 8 µM
  relative viability: 0.969
SW 1573; first compound 0.08 µM
  relative viability: 0.711
SW 1573; first compound 0.253 µM
  relative viability: 0.7
SW 1573; first compound 0.8 µM
  relative viability: 0.638
SW 1573; first compound 2.53 µM
  relative viability: 0.683
SW 1573; first compound 8 µM
  relative viability: 0.655
NCI-H1437; first compound 0.08 µM
  relative viability: 0.942
NCI-H1437; first compound 0.253 µM
  relative viability: 0.969
NCI-H1437; first compound 0.8 µM
  relative viability: 1.01
NCI-H1437; first compound 2.53 µM
  relative viability: 0.961
NCI-H1437; first compound 8 µM
  relative viability: 1.07
RERF-LC-KJ; first compound 0.08 µM
  relative viability: 0.834
RERF-LC-KJ; first compound 0.253 µM
  relative viability: 0.875
RERF-LC-KJ; first compound 0.8 µM
  relative viability: 0.817
RERF-LC-KJ; first compound 2.53 µM
  relative viability: 0.765
RERF-LC-KJ; first compound 8 µM
  relative viability: 0.979
HCC-827; first compound 0.08 µM
  relative viability: 0.936
HCC-827; first compound 0.253 µM
  relative viability: 0.97
HCC-827; first compound 0.8 µM
  relative viability: 0.953
HCC-827; first compound 2.53 µM
  relative viability: 1.01
HCC-827; first compound 8 µM
  relative viability: 0.987
LK-2; first compound 0.08 µM
  relative viability: 0.921
LK-2; first compound 0.253 µM
  relative viability: 0.771
LK-2; first compound 0.8 µM
  relative viability: 1.13
LK-2; first compound 2.53 µM
  relative viability: 1.28
LK-2; first compound 8 µM
  relative viability: 1
PC-3 [JPC-3]; first compound 0.08 µM
  relative viability: 1.02
PC-3 [JPC-3]; first compound 0.253 µM
  relative viability: 0.981
PC-3 [JPC-3]; first compound 0.8 µM
  relative viability: 1.07
PC-3 [JPC-3]; first compound 2.53 µM
  relative viability: 1.09
PC-3 [JPC-3]; first compound 8 µM
  relative viability: 1.12
NCI-H322M; first compound 0.08 µM
  relative viability: 0.776
NCI-H322M; first compound 0.253 µM
  relative viability: 1.05
NCI-H322M; first compound 0.8 µM
  relative viability: 0.821
NCI-H322M; first compound 2.53 µM
  relative viability: 0.771
NCI-H322M; first compound 8 µM
  relative viability: 0.836
NCI-H1563; first compound 0.08 µM
  relative viability: 0.939
NCI-H1563; first compound 0.253 µM
  relative viability: 0.969
NCI-H1563; first compound 0.8 µM
  relative viability: 0.886
NCI-H1563; first compound 2.53 µM
  relative viability: 0.974
NCI-H1563; first compound 8 µM
  relative viability: 0.901
ABC-1; first compound 0.08 µM
  relative viability: 0.983
ABC-1; first compound 0.253 µM
  relative viability: 1.12
ABC-1; first compound 0.8 µM
  relative viability: 0.879
ABC-1; first compound 2.53 µM
  relative viability: 0.991
ABC-1; first compound 8 µM
  relative viability: 0.585
